{"source": "patent US20260118350A1", "about": "“Fluorescent Probes for Peroxidase-Mediated Fluorescent Signal Amplification” (Seoul National University R&DB Foundation, priority 2024, published 2026)", "key": {"TOM20-V5-APEX2": {"tested_on": "TOM20-V5-APEX2", "test": "Fixed-cell APEX labeling with TOM20-V5-APEX2 (confocal colocalization, line scan)", "type": "cell-based, Human", "method": "HeLa cells were transiently transfected with the APEX2-POI construct using PEI when cells reached approximately 70% confluency, following the protocol provided by the production company of PEI. After transfection and protein expression, the cells were fixed with 4% PFA in 1×DPBS for 15 minutes at room temperature. Subsequently, the cells were washed three times with DPBS. For the APEX reaction, JFT probes (100-500 μM) and H2O2 (0.5-1 mM) were used in 0.1 M PHEMS buffer for the specified time points. The APEX2-mediated reaction was quenched using a quencher solution (a mixture of sodium ascorbate, trolox, and sodium azide, see PMID: 23371551), and the cells were washed three times with DPBS buffer. For immunofluorescence imaging, the cells were permeabilized with −20° C. methanol for 5 minutes, followed by the standard immunofluorescence staining protocol. The detection of JFT fluorescence and immunofluorescence was performed using the GFP channel (excitation at 488 nm), RFP channel (excitation at 561 nm), and Cy5 channel (excitation at 647 nm) of a confocal light microscope 428 (FV3000, Olympus, Japan). […]"}, "Matrix-V5-APEX2": {"tested_on": "Matrix-V5-APEX2", "test": "Pre-embedding osmium treatment CLEM of JFT1-stained fixed Matrix-V5-APEX2 cells", "type": "cell-based", "conditions": "500 μM JFT1, 1 mM H2O2, 5 min; 0.4% OsO4, dehydration, resin embedding, 100 nm ultrathin section", "method": "To obtain the SEM-based CLEM images via pre-embedding osmium treatment procedure (FIG. 2C, lower), cells were fixed with 2.5% glutaraldehyde (Electron Microscopy Sciences, cat. No. 16200) and 2% paraformaldehyde (Electron Microscopy Sciences, cat. No. 19210) in 0.1 M cacodylate solution (pH 7.0) for 30 min at 4° C. After washing, 20 mM glycine solution was used for quenching unreacted aldehyde. Next, JFT1 probe labeling with 500 μM JFT1 and 0.5-1 mM H2O2, was conducted for 5 min. Next, JFT1-labeled cells were post-fixed with 0.4% osmium tetroxide (OsO4) containing 1.5% potassium ferrocyanide in distilled water for 30 min at 4° C. and en bloc in 1% uranyl acetate (EMS, USA, cat. No. 22400) overnight and dehydrated with a graded ethanol series. The samples were then embedded with an EMBed-812 embedding kit (Electron Microscopy Sciences, USA, cat. No. 14120) and polymerized in an oven at 60° C. […]\nGiven the significance of osmium staining in EM sample preparation, the preservation of JF and JFT1 fluorescence after OsO4 treatment was tested. Remarkably, both JF- and JFT1-stained APEX2-expressing regions retained 70-80% of the original osmium-resistant fluorescence intensity even after osmium treatment (0.1% OsO4), facilitating their detection using confocal microscopy (FIG. 2D). […]"}, "[1]": {"test": "Photophysical properties in buffer (absorption, fluorescence)", "type": "physicochemical", "method": "These photophysical properties render the JF probes suitable for detection in the RFP channel (excitation at 561 nm, fluorescence emission filter: 565-620 nm). […] The absorbance spectra largely shifted from 515 (pH 7.4) to 416 nm when the probe was incubated at pH 6.0. […] This property enables the detection of JF probes in the GFP channel; however, the fluorescence intensity was negligible compared to that of GFP or GFP variant proteins (mEosEM etc.)."}, "organelle-targeted APEX2": {"tested_on": "organelle-targeted APEX2", "test": "Fixed-cell FLEX staining of organelle-targeted APEX2-POIs", "type": "cell-based, Human", "conditions": "fixed cells, PHEMS buffer 100 mM pH 7.4", "method": "HeLa cells were transiently transfected with the APEX2-POI construct using PEI when cells reached approximately 70% confluency, following the protocol provided by the production company of PEI. After transfection and protein expression, the cells were fixed with 4% PFA in 1×DPBS for 15 minutes at room temperature. Subsequently, the cells were washed three times with DPBS. For the APEX reaction, JFT probes (100-500 μM) and H2O2 (0.5-1 mM) were used in 0.1 M PHEMS buffer for the specified time points. […] The detection of JFT fluorescence and immunofluorescence was performed using the GFP channel (excitation at 488 nm), RFP channel (excitation at 561 nm), and Cy5 channel (excitation at 647 nm) of a confocal light microscope 428 (FV3000, Olympus, Japan).\nIt was assessed whether JFT1 could react with APEX2 targeting various organelles under fixed conditions. […] Furthermore, JFT1 effectively generated a fluorescence signal with the APEX2-tagged POIs (APEX2-POIs) within specific compartments, including the mitochondrial matrix (Matrix-V5-APEX2), nucleus (V5-APEX2-NLS), and ER lumen (SEC61B-V5-APEX2) under fixed-cell conditions. […] These findings validate the wide applicability of JFT1 for APEX2-mediated fluorescence signal amplification (FLEX) in various subcellular organelles. […]"}}, "note": "“Also recorded” adds a separate entry of the source."}
{"smiles": "OCCn1cc(C[n+]2c(/C=C/c3ccc(O)cc3)sc3ccccc32)nn1", "note": "[JFT1, (E)-3-((1-(2-hydroxyethyl)-1H-1,2,3-triazol-4-yl)methyl)-2-(4-hydroxystyryl)benzo[d]thiazol-3-ium]", "values": [{"measurement": "labeling pattern by line scan analysis vs anti-V5 stain", "setting": "TOM20-V5-APEX2; fixed cells, TOM20-V5-APEX2, RFP signal", "value": "most optimal and restricted labeling pattern; also recorded: most well-matched pattern"}, {"measurement": "Pearson correlation coefficient (r) between probe-labeling region (RFP signal) and enzyme-expressed region (anti-V5 stain)", "setting": "TOM20-V5-APEX2; fixed sample, TOM20-V5-APEX2", "value": 0.91}, {"measurement": "fluorescence signal after pre-embedding steps", "setting": "Matrix-V5-APEX2", "value": "well-preserved"}, {"measurement": "green fluorescence Imax", "setting": "[1]; acidic pH (pH<7), excitation 405 or 450 nm", "value": 520, "unit": "nm"}, {"measurement": "absorbance spectra maximum", "setting": "[1]; pH 6.0", "value": 416, "unit": "nm"}, {"measurement": "absorbance spectra maximum", "setting": "[1]; pH 7.4", "value": 515, "unit": "nm"}, {"measurement": "fluorescence signal in GFP channel", "setting": "organelle-targeted APEX2", "value": "weak green fluorescence signal"}, {"measurement": "fluorescence signal in RFP channel", "setting": "organelle-targeted APEX2", "value": "strong red fluorescence signal"}]}
